Assay results as given in patent US10806721B2, “Formulation for use in the treatment of uremic pruritus” (DRUG DELIVERY SOLUTIONS, priority 2016, dated 2020).

Experiments:
[1] = system: Human Reconstructed Epidermis (RHE); assay: ELISA of carbamoylated proteins in RHE with urea in the growth medium (Example 4); type: cell-based
Excerpt: (§1) Protein analysis was made according to a previous developed method (14). Carbamoylated proteins from the skin samples were coated to ELISA wells and quantified using a using a primary polyclonal anti-homocitrullin antibody and a secondary labelled polyclonal detection antibody.
The same method as described in example 3 was used. The studies were based on the use of the Human Reconstructed Epidermis (RHE) model purchased from Episkin®. Three experiments were made in duplicate including 2 controls. Growth media (1 ml) with and without additions (see below) were replaced daily accordingly to the standard protocol. In contrast to Example 3 the urea exposure was made by addition of urea to the growth medium. Experiment 1 corresponds to the two controls; experiment 2 was with growth medium with 4 mg/ml urea; experiment 3 was with growth medium with 4 mg/ml urea and with addition of 5 mg […] cream with 2% amino acids applied on top of RHE skin surface at Day 0 and Day 3. All 6 skin samples looked macroscopically healthy when they were harvested after 6 days. There were no signs of infection or necrosis. They were immediately frozen at minus 80° C. until protein analysis. Parts of all samples were sent for histological examination.
Protein carbamoylated was investigated using the same method as in Experiment 3.

[2] = system: reconstructed human epidermis (RHE); assay: Histological examination of reconstructed human epidermis exposed to urea (Example 3); type: cell-based
Experimental: (§2) To further investigate possible carbamylation in human skin in UP (Uremic Pruritus) the inventors conducted a series of studies in the reconstructed human epidermis (RHE) model. The 4 cm^2 large skin samples were delivered from Episkin® in 6 well plates each with a volume of 1 ml. The experiments were carried out in 18-25 days old skin samples. RHE is a standardized technology used to investigate metabolic, toxic and inflammatory reactions in the skin (13). The skin samples were developed from human epidermal stem cells. They were developed on a […] net with an underlying growth medium. The RHE contains all the different cell layers in the epidermis, including stratum corneum. The samples are kept at 37° C. in a 5% CO2 atmosphere. They are handled under sterile conditions. New growth medium is added daily. The 4 cm^2 large skin samples were ready for use after 18 days' development; a time span similar to the normal turnover of human skin.
(§3) 12 individual experiments were carried out including 2 controls. Growth media (1 ml) were replaced daily according to the standard protocol. 6 of the samples were harvested at day 3 and 6 at day 6 and immediately frozen at minus 80° C. until protein analysis. Parts of all samples were sent for histologic examination.
(§4) The following exposures (individual experiments), all from stratum corneum side of the skin sample, were made.
(§5) 2. Urea in an aqueous solution in the same amount—calculated as mg/cm^2 skin—, as in UP. This calculated amount corresponds to 0.3 mg/cm^2, based on calculation of the sum of the average serum levels of urea in uremic patients, urea from sweat, and contribution from active transport of urea into the cells in epidermis. The addition of urea is done by the addition of 200 μl of a solution of 6 mg urea/ml) to the surface of the skin samples.
(§6) 3. As under above item 2 but in double amount (0.6 mg/cm^2).
(§7) 4. As under above item 3 and added 200 μl of a 1% histidine solution.
(§8) 5. 5% commercially available urea cream dosed as intended human use
6. 10% commercially available urea cream dosed as intended human use […]

[3] = system: reconstructed human epidermis (RHE); assay: ELISA of carbamoylated proteins in reconstructed human epidermis exposed to urea from the stratum corneum side (Example 3); type: cell-based; settings: for ELISA reading, carbamoylated proteins, Day 3: harvested day 3; for ELISA reading, carbamoylated proteins, Day 6: harvested day 6; for carbamylation of proteins (result in words): exposure on top of RHE skin samples, within 6 days
Experimental: as §2, §3, §4
1. Controls: Left untreated.
as §5, §6, §7, §8
6. 10% commercially available urea cream dosed as intended human use
The skin samples harvested at day 3 were exposed day 0 to 2-6 and day 1 to 2-4. (tabl. 1)
The skin samples is harvested at day 6 were exposed as above and further day 3 to 2-6. In agreement with Table 1 the aqueous urea solution was absorbed immediately through the skin samples. The two creams left a deposit on top of the skin and were therefore only applied twice; day 0 and day 3 (for the 6-day experiment). Daily exposures were abstained to minimize the risk of infection. […] Further the urea concentrations from experiments 2, 3 and 4 harvested day 6 may have been relatively low due to only one supplementary exposure day 3.
as §1

[4] = Degradation of histidine in the cream of Example 1 exposed to urea; type: physicochemical; settings: cream of Example 1 with 10 w/w % urea; six weeks at 40° C.
Experimental: The degradation process was followed over time and after six weeks at 40° C. only 20% histidine was left in the cream having 10 w/w % urea.

[5] = Urea conc. as in UP (high) 12 mg, 0.6 mg/cm^2 on skin surface
[6] = Urea conc. as in UP (moderate) 6 mg, 0.3 mg/cm^2 on skin surface
[7] = 0.5% histidine added to urea conc. as in UP (high) 12 mg

histidine left in the cream [4]	SMILES	Elisa reading, carbamoylated proteins, average of two experiments ([1]; GM + 4 mg urea/ml, harvested after 6 days)	level of protein carbamylation (result in words) ([1]; growth medium with 4 mg/ml urea, 6 days)	histological changes (edema and disruptions in stratum corneum, premature cell death in stratum spinosum) ([2]; harvested day 3)	histological changes ([2]; harvested day 6)	ELISA reading, carbamoylated proteins, Day 3 [3, 5]	ELISA reading, carbamoylated proteins, Day 6 [3, 5]	ELISA reading, carbamoylated proteins, Day 3 [3, 6]	ELISA reading, carbamoylated proteins, Day 6 [3, 6]	carbamylation of proteins (result in words) [3]	effect on urea-induced edema and cell death (histology) ([2]; histidine added to urea 0.6 mg/cm^2, harvested both day 3 and day 6)	ELISA reading, carbamoylated proteins, Day 3 [3, 7]	ELISA reading, carbamoylated proteins, Day 6 [3, 7]
–	NC(N)=O [Urea]	0.68 absorbance units	highest level of carbamylation	significant changes	recovered to a certain extent	0.316 absorbance units	0.475 absorbance units	0.377 absorbance units	0.368 absorbance units	could be demonstrated	–	–	–
20%	N[C@@H](Cc1c[nH]cn1)C(=O)O [histidine]	–	–	–	–	–	–	–	–	prevented this carbamylation	can counteract this effect	0.312 absorbance units	0.321 absorbance units
